Test results taken from patent publication US20220047525A1, “TRANSDERMAL PHARMACEUTICAL FORMULATIONS OF NABILONE ALONE AND IN COMBINATION WITH CANNABINOIDS” (Pike Therapeutics, Inc., priority 2020, published 2022).
pKi: −log10 of the molar value.

Columns and labels:
[1] = in vivo; cited from earlier work
CB2 = CB2 (Homo sapiens, UniProt P34972); details: cited from earlier work
[2] = Tolerability of CBD and THCV daily doses; assay type: in vivo
CB1 = CB1 (Homo sapiens, UniProt P21554); details: cited from earlier work
CB1, sequence (P21554 whole entry, species assumed): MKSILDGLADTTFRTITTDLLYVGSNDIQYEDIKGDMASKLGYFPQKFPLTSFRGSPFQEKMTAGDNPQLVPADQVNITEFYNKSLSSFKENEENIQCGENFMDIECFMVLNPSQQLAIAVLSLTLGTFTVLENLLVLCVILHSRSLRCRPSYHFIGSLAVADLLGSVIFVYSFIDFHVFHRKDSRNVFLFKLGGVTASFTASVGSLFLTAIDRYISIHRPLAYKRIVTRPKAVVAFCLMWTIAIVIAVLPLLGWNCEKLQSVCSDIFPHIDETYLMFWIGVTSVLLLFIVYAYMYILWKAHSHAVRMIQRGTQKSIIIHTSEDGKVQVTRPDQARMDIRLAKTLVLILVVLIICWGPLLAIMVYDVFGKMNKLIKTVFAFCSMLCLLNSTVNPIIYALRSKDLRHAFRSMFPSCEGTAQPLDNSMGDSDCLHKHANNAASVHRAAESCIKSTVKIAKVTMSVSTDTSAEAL

CB2, sequence (P34972 whole entry, species assumed): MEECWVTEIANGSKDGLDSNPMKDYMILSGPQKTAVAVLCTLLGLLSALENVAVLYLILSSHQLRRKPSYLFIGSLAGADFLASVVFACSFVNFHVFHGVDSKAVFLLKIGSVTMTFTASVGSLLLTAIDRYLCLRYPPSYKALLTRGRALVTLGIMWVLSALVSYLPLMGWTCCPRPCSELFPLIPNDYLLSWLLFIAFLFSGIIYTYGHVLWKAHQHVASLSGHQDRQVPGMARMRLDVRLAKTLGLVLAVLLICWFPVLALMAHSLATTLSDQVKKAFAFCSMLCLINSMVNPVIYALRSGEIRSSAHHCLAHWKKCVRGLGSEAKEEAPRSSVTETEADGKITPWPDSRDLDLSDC

## CCCCCCC(C)(C)c1cc(O)c2c(c1)OC(C)(C)[C@@H]1CCC(=O)C[C@@H]21 (racemic) [Cesamet, (±)-trans-3-(1,1-dimethylheptyl)-6,6a,7,8,10,10a-hexahydro-lhydroxy-6-6-dimethyl-9H-dibenzo[b,d]pyran-9-one]
[1]
  reducing spasticity: positive results

## CCCn1c(C)c(C(=O)c2ccc(C)c3ccccc23)c2ccccc21 [JWH-148]
CB2
  selectivity for CB2 over the CB1 subtype: more than 8 times

## CCCCCc1cc(O)c2c(c1)OC(C)(C)[C@@H]1CCC(C)=C[C@@H]21 [Marinol]
[1]
  reducing spasticity: positive results

## C=C(C)[C@@H]1CCC(C)=C[C@H]1c1c(O)cc(CCCCC)cc1O [CBD, 2-[(1R,6R)-6-isopropenyl-3-methylcyclohex-2-en-1-yl]-5-pentylbenzene-1,3-diol]
[2]; 200 mg CBD per day
  tolerability: well tolerated

## CCCc1cc(O)c2c(c1)OC(C)(C)[C@@H]1CCC(C)=C[C@@H]21 [THCV, tetrahydrocannbivarin]
[2]; 10 mg THCV per day
  tolerability: well tolerated

## CCCCCn1cc(C(=O)c2ccc(Cl)c3ccccc23)c2ccccc21 [JWH-398]
CB1
  pKi: 8.64
CB2
  pKi: 8.55

## CCCCCn1cc(C(=O)c2cccc3cccc(Br)c23)c2ccccc21 [JWH-424]
CB1
  pKi: 7.68
CB2
  pKi: 8.26

## CCCCCCC(C)(C)c1cc(OC)c2c(c1)OC(C)(C)C1CCC(O)CC21 (stereo not drawn) [JWH-350, 11-nor-1-methoxy-3-(1′,1′-dimethylheptyl)-9α-hydroxyhexahydrocannabinol]
CB2
  selectivity for CB2: 33 fold

## CCCn1cc(C(=O)c2ccc(C)c3ccccc23)c2ccccc21 [JWH-120]
CB2
  selectivity for CB2: 173 fold

## CCCCCCC(C)(C)c1cc(O)c2c(c1)oc(=O)c1ccc(OC)cc12 [AM-1710]
CB2
  selectivity for CB2 over CB1: 54 ×

## CCCCC/C=C\C/C=C\C/C=C\C/C=C\CCCC(=O)N[C@H](C)CO [Methanandamide]
CB1
  pKi: 7.75
